Results: PMC11533527, “A yeast two-hybrid system to obtain triple-helical ligands from combinatorial random peptide libraries” (The Journal of Biological Chemistry, 2024)
Where no end group is shown, it is not given here.

Assays:
HSP47 (GAL4-BD-fusion) = assay: Yeast two-hybrid interaction with BD-fusion HSP47 (indicator of triple-helical conformation); format: cell-based, mouse
Text: We expressed (Pro-Gly-Pro)-repeating peptides with a repeat number of 10, 13, or 23, as GAL4-AD-fusion proteins in yeast cells. The lengths of (Pro-Gly-Pro)10, (Pro-Gly-Pro)13, and (Pro-Gly-Pro)23 correspond to those of the N-terminal host, the guest plus the N-terminal host, and the guest plus the N- and C-hosts in the above peptide design (Fig. 1B), respectively. The peptides with fewer (Pro-Gly-Pro)-repeats have lower thermal stability of the triple helices ([19]). We set three different culture temperatures, 16, 30, and 37 °C, with the expectation of identifying the binding of BD-fusion HSP47 to these three peptides with GAL4-AD by the yeast two-hybrid system (Fig. 3). The mated yeast cells were selected by His and Ade auxotrophy in the presence of aureobasidin and X-α-Gal. When HSP47 interacts with the peptides, GAL4-BD and GAL4-AD are brought into proximity to activate the transcription of reporter genes (AUR1-C, ADE2, HIS3, and MEL1). The reporter gene expression allows yeast cells to survive on the plates and turn blue by degrading X-α-Gal. The interaction between HSP47 (bait) and peptides (prey) was detected by the growth of blue colonies on the selection plates. […] HSP47 bound only to (Pro-Gly-Pro)23 in yeast cells at 37 °C. At 30 °C, HSP47 bound to (Pro-Gly-Pro)13 as well as (Pro-Gly-Pro)23, but not to (Pro-Gly-Pro)10. At 16 °C, HSP47 bound to all three of the peptides.
A gene fragment encoding full-length mature mouse PEDF and HSP47 with EcoRI and SalI sites was obtained by PCR amplification, as described in the literature ([15], [45]). The DNA fragments and a pGBKT7 vector were ligated after digestion with EcoRI and SalI and transformed into E. coli HST08 competent cells (TaKaRa, Shiga, Japan). To prepare plasmids encoding PEDF R148A and D255N mutants, inverse PCR was performed with the above GAL4-BD-fused PEDF in a pGBKT7 vector as a template by Primestar MAX (TaKaRa). The PCR product was ligated with Gibson assembly reagents (New England Biolabs, Hertfordshire, UK), followed by transformation into HST08 competent cells. […]
(§1) Y2H interaction was detected by incubation of the generated diploids on minimal-medium quadruple-dropout (QDO; SD/-Leu-Trp-His-Ade) plates with 40 μg/ml X-α-Gal (FUJIFILM Wako Pure Chemical, Osaka, Japan) and 200 ng/ml aureobasidin A (TaKaRa) (QDOGA) plates and incubated for 3–5 days. Positivity for interaction was recorded upon the generation of yeast colonies that appeared blue.

[1] = test system: full-length mouse PEDF (GAL4-BD-fusion); assay: Yeast two-hybrid interaction of AD-fusion peptides with BD-fusion WT-PEDF; format: cell-based; settings: yeast diploids cultured at 25 °C for 5 days
Text: To determine whether the peptides with the obtained sequences bind to PEDF in the same manner as the native PEDF-binding sequence, α1(I)930–938, we examined independent two-hybrid interactions of the three peptides and their mutants in which Arg at Yaa4 was substituted with Ala. […] We also examined the binding of the peptides to collagen-binding-null or heparin-binding-null PEDF mutants that we already reported ([33]). […] Meanwhile, the interaction was not observed for the peptide with the 1-2 sequence, probably because Cys at Xaa9 led to weaker interaction with PEDF than Leu ([15]). […] By contrast, the interactions were maintained using heparin-binding-null PEDF mutant (PEDF R148A) as a bait protein.
The bait and prey plasmids were transformed into S. cerevisiae Y2H gold (MATa, trp1-901, leu2-3, 112, ura3-52, his3-200, gal4Δ, gal80Δ, LYS2::GAL1UAS-Gal1TATA-His3, GAL2UAS-Gal2TATA-Ade2, URA3::MEL1UAS-Mel1TATA, AUR1-C MEL1; TaKaRa) and Y187 strains (MATα, ura3-52, his3-200, ade2-101, trp1-901, leu2-3, 112, gal4Δ, gal80Δ, met-, URA3::GAL1UAS-Gal1TATA-LacZ, MEL1; TaKaRa), in accordance with the manufacturer’s protocol. They were incubated on SD/-Trp and SD/-Leu plates, respectively, at 30 °C for 4–5 days for the selection of transformed clones.
Diploids were prepared by mixing them on yeast peptone dextrose adenine (YPDA) plates. After incubation at 30 °C overnight, they were spread on minimal-medium double-dropout (DDO; SD/-Leu-Trp) plates and incubated at 30 °C for 2–3 days for the selection of diploids.
as §1

| Substance | Two-hybrid interaction with HSP47 (HSP47 (GAL4-BD-fusion); cultured at 30 °C for 3 days) | Two-hybrid interaction with BD-fusion WT-PEDF (blue colonies on QDOGA plates) [1] | Two-hybrid interaction with HSP47 (HSP47 (GAL4-BD-fusion); cultured at 37 °C for 3 days) |
| --- | --- | --- | --- |
| (Pro-Gly-Pro)10 [GAL4-AD-fusion (Pro-Gly-Pro)10] | not |  |  |
| (Pro-Gly-Pro)10-Lys-Gly-His-Arg-Gly-Phe-Ser-Gly-Leu-(Pro-Gly-Pro)10 [α1(I)930–938] |  | observed |  |
| (Pro-Gly-Pro)13 [GAL4-AD-fusion (Pro-Gly-Pro)13] | bound |  |  |
| (Pro-Gly-Pro)23 [GAL4-AD-fusion (Pro-Gly-Pro)23] | bound |  | bound |
| KGCRGLHGL [1-1, GAL4-AD-fusion peptide clone from the random library, flanked by (Pro-Gly-Pro)10 hosts] |  | observed |  |
| RGHRGFLGL [1-3, GAL4-AD-fusion peptide clone from the random library] |  | observed |  |
| RGVRGFEGC [1-2, GAL4-AD-fusion peptide clone from the random library] |  | not observed |  |
